Values of other authors, collected in patent US20220395497A1, “Cancer Treatment Using Camptothecin Derivatives” (priority 2019, published 2022).
Read-outs that look alike come from different tables or passages of the source. Marks after values point to notes of the source that are not given here.

Columns and labels:
reGBM patients [1] = conditions: cited from earlier work; for Diarrhoea Grades 3-5 / Neutropenia Grades 3-4 / Thrombocytopenia Grades 3-4: reGBM, single agent
[2] = system: Recurrent Colorectal cancer patients; conditions: N = 316 across 2 studies, cited from earlier work
[3] = system: Metastatic Colorectal cancer patients; conditions: previously treated, cited from earlier work
[4] = system: Colorectal cancer patients; conditions: single agent, bolus, N = 223; cited from earlier work
[5] = system: Colorectal cancer patients; conditions: w/5FU, LV, bolus, N = 225; cited from earlier work
reGBM patients [6] = conditions: cited from earlier work
reGBM patients [7] = conditions: single agent vs Enzastaurin, N = 92, Treated = 84; cited from earlier work
reGBM patients [8] = conditions: single agent/placebo, N = 64; cited from earlier work
[9] = in vivo; cited from earlier work
[10] = system: cells in the S phase of the cell cycle; conditions: in vitro; cited from earlier work
GBM/AA patients = conditions: single agent Phase II, N = 20 in heavily pretreated bev failures; cited from earlier work
BCBM patients = conditions: Phase 3 BEACON Study, N = 425; cited from earlier work

CC[C@@]1(O)C(=O)OCc2c1cc1n(c2=O)Cc2c-1nc1ccccc1c2/C=N/OC(C)(C)C [Gimatecan]
treatment-related toxicities of thrombocytopenia, leukopenia, and neutropenia, patients (reGBM patients [1]; Phase II trial, oral): 10-18%
PFS6 (reGBM patients [1]; in vivo): 12%
Diarrhoea Grades 3-5 (reGBM patients [1]; N = 10 High Dose): 0%
Neutropenia Grades 3-4 (reGBM patients [1]; N = 10 High Dose): 30%
Thrombocytopenia Grades 3-4 (reGBM patients [1]; N = 10 High Dose): 40%
Diarrhoea Grades 3-5 (reGBM patients [1]; N = 10 Low Dose): 0%
Neutropenia Grades 3-4 (reGBM patients [1]; N = 10 Low Dose): 0%
Thrombocytopenia Grades 3-4 (reGBM patients [1]; N = 10 Low Dose): 5%

CCc1c2c(nc3ccc(OC(=O)N4CCC(N5CCCCC5)CC4)cc13)-c1cc3c(c(=O)n1C2)COC(=O)[C@]3(O)CC [Irinotecan]
Diarrhoea Grade 4 ([2]; average across 2 studies): 22%*
Nausea Grades 3,4 ([2]; average across 2 studies): 12%*
Vomiting Grades 3,4 ([2]; average across 2 studies): 14%*
Neutropenia Grade 4 [2]: 18%
Diarrhoea Grade 4 ([3]; N = 304, late diarrhoea): 14%**
Nausea Grades 3,4 ([3]; N = 304): 17%
Neutropenia Grade 4 ([3]; N = 304): 12%
Vomiting Grades 3,4 ([3]; N = 304): 12%
Diarrhoea Grade 4 [4]: 7%
Nausea Grades 3,4 [4]: 16%
Neutropenia Grade 4 [4]: 12%
Vomiting Grades 3,4 [4]: 12%
Diarrhoea Grade 4 [5]: 5%
Nausea Grades 3,4 [5]: 16%
Neutropenia Grade 4 [5]: 24%
Vomiting Grades 3,4 [5]: 10%

CC[C@@]1(O)C(=O)OCc2c1cc1n(c2=O)Cc2c-1nc1ccccc1c2CC[Si](C)(C)C [Karenitecin]
neutropenia and thrombocytopenia, patients (reGBM patients [6]; Phase I trial): 13-23%
Diarrhoea Grades 3-5 (reGBM patients [6]; reGBM, single agent, N = 30): 3%
Neutropenia Grades 3-4 (reGBM patients [6]; reGBM, single agent, N = 30): 23%
Thrombocytopenia Grades 3-4 (reGBM patients [6]; reGBM, single agent, N = 30): 13%

O=NN(CCCl)C(=O)NC1CCCCC1 [Lomustine]
Nausea Grades 3-5 (reGBM patients [7]): 0%
Neutropenia Grades 3-4 (reGBM patients [7]): 20%
Thrombocytopenia Grades 3-4 (reGBM patients [7]): 25%
Diarrhoea Grades 3-5 (reGBM patients [8]): 2%
Neutropenia Grades 3-4 (reGBM patients [8]): 3%
Thrombocytopenia Grades 3-4 (reGBM patients [8]): 22%

CCc1c2c(nc3ccc(O)cc13)-c1cc3c(c(=O)n1C2)COC(=O)[C@]3(O)CC [SN-38]
ratio of the lactone AUC to total AUC [9]: 0.51

CC[C@@]1(O)C(=O)OCc2c1cc1n(c2=O)Cc2cc3ccccc3nc2-1 [camptothecin]
sensitivity to camptothecin-induced apoptosis, S phase cells vs cells in the G1 or G2 phase [10]: 100 to 1,000 times

CC[C@@]1(O)C(=O)OCc2c1cc1n(c2=O)Cc2cc3c(CN(C)C)c(O)ccc3nc2-1 [topotecan]
ratio of the lactone AUC to total AUC [9]: 0.37

Etirinotecan
Diarrhoea Grades 3-5 (GBM/AA patients): 10%
Diarrhoea Grades 3-5 (BCBM patients): 10%
Nausea Grades 3-5 (BCBM patients): 4%
Neutropenia Grades 3-4 (BCBM patients): 10%
